{"source": "the kinase profiling compilation of Christmann-Franck et al. (2016)", "test_in_all_cases": "KINOMEscan competition binding", "conditions_in_all_cases": "compound 1.0 µM", "key": {"STK16 (human)": {"molecular_target": "STK16 (human) (UniProt O75716)", "sequence (O75716 whole entry, looked up)": "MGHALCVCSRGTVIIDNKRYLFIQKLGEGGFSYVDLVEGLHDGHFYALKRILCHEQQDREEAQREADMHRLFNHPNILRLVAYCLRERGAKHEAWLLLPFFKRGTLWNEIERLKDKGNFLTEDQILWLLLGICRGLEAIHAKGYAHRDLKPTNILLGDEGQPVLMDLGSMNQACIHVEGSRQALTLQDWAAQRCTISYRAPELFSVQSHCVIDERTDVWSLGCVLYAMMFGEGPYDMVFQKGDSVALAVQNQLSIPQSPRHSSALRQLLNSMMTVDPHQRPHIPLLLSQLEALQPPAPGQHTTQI"}, "CSNK1A1L (human)": {"molecular_target": "CSNK1A1L (human) (UniProt Q8N752)", "sequence (Q8N752 whole entry, looked up)": "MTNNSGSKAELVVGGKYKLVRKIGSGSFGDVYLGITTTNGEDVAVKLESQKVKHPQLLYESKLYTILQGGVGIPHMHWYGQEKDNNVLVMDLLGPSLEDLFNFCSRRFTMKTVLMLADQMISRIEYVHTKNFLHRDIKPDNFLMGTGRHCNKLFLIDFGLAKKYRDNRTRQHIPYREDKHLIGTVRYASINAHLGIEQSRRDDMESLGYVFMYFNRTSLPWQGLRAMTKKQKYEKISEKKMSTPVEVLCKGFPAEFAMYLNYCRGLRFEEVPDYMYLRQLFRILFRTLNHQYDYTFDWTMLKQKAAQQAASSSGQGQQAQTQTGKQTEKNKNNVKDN"}, "ERN1 (human)": {"molecular_target": "ERN1 (human) (UniProt O75460)"}, "[1]": {"test_system": "FLT3 (human), P36888 [ITD]"}, "MAP3K7 (human)": {"molecular_target": "MAP3K7 (human) (UniProt O43318)", "sequence (O43318 whole entry, looked up)": "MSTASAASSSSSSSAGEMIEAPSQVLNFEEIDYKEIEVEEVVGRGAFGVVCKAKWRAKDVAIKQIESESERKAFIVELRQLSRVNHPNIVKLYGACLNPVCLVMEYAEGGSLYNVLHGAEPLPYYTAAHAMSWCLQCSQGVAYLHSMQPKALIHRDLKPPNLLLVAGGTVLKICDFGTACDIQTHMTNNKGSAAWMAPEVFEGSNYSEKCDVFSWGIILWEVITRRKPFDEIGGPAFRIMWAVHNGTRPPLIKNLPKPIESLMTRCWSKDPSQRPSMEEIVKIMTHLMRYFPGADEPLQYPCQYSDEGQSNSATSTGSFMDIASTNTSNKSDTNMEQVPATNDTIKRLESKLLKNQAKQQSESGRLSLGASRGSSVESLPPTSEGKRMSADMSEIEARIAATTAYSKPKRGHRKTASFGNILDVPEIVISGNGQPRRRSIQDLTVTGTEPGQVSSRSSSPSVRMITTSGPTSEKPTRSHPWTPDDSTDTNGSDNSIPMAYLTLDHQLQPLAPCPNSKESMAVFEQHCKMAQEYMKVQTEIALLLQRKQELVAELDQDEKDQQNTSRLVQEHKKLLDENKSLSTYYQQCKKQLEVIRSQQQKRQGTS"}, "VRK2 (human)": {"molecular_target": "VRK2 (human) (UniProt Q86Y07)", "sequence (Q86Y07 whole entry, looked up)": "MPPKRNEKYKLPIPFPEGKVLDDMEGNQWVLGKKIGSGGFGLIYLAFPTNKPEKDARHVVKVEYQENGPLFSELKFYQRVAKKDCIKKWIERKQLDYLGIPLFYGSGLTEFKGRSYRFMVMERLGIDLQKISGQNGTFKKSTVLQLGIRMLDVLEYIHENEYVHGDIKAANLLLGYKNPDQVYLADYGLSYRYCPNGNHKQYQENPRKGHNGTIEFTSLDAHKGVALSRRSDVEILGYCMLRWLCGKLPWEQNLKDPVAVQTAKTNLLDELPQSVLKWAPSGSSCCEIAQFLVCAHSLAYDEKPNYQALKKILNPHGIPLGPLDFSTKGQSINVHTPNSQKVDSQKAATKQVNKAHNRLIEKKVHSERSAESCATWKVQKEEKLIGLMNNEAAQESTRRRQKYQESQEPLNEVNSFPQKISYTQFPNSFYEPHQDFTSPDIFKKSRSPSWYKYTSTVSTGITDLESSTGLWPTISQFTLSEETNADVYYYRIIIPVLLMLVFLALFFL"}, "BMPR2 (human)": {"molecular_target": "BMPR2 (human) (UniProt Q13873)"}, "CAMK4 (human)": {"molecular_target": "CAMK4 (human) (UniProt Q16566)", "sequence (Q16566 whole entry, looked up)": "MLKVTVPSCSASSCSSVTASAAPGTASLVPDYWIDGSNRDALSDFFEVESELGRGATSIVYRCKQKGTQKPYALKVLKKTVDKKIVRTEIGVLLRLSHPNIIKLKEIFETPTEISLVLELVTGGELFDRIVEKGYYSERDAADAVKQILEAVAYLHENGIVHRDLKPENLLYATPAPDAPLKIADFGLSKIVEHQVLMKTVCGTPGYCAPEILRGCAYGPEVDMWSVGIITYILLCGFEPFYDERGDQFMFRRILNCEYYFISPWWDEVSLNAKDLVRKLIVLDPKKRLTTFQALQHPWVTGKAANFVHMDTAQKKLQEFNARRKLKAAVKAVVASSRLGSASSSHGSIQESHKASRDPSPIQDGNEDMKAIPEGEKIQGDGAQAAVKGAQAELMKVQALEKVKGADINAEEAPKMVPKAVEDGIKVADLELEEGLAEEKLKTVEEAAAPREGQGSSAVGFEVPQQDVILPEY"}, "TYRO3 (human)": {"molecular_target": "TYRO3 (human) (UniProt Q06418)"}, "PAK6 (human)": {"molecular_target": "PAK6 (human) (UniProt Q9NQU5)"}, "MAPK7 (human)": {"molecular_target": "MAPK7 (human) (UniProt Q13164)"}, "HCK (human)": {"molecular_target": "HCK (human) (UniProt P08631)"}, "KDR (human)": {"molecular_target": "KDR (human) (UniProt P35968)"}, "EPHB1 (human)": {"molecular_target": "EPHB1 (human) (UniProt P54762)"}, "GSK3B (human)": {"molecular_target": "GSK3B (human) (UniProt P49841)", "sequence (P49841 whole entry, looked up)": "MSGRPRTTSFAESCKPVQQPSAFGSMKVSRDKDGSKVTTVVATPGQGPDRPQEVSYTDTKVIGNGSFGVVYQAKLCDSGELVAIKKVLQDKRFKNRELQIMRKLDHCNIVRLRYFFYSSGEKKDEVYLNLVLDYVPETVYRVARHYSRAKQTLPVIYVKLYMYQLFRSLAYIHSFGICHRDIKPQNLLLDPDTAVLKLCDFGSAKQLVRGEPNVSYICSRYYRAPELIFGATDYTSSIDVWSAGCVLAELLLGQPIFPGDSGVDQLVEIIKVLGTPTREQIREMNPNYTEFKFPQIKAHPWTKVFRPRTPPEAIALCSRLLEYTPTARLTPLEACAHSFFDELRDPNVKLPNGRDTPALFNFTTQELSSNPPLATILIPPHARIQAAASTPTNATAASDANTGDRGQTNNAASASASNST"}, "PAK1 (human)": {"molecular_target": "PAK1 (human) (UniProt Q13153)"}, "CPK1 (P.falciparum)": {"test_system": "CPK1 (P.falciparum)"}, "GSK3A (human)": {"molecular_target": "GSK3A (human) (UniProt P49840)"}, "[2]": {"test_system": "KIT (human), P10721 [D816H]"}, "PAK3 (human)": {"molecular_target": "PAK3 (human) (UniProt O75914)"}, "[3]": {"test_system": "MET (human), P08581 [Y1235D]"}, "ALK (human)": {"molecular_target": "ALK (human) (UniProt Q9UM73)"}, "MTOR (human)": {"molecular_target": "MTOR (human) (UniProt P42345)"}, "RPS6KA2 KD2 (human)": {"molecular_target": "RPS6KA2 KD2 (human) (UniProt Q15349)"}, "STK25 (human)": {"molecular_target": "STK25 (human) (UniProt O00506)"}, "MINK1 (human)": {"molecular_target": "MINK1 (human) (UniProt Q8N4C8)"}, "MAP3K9 (human)": {"molecular_target": "MAP3K9 (human) (UniProt P80192)", "sequence (P80192 whole entry, looked up)": "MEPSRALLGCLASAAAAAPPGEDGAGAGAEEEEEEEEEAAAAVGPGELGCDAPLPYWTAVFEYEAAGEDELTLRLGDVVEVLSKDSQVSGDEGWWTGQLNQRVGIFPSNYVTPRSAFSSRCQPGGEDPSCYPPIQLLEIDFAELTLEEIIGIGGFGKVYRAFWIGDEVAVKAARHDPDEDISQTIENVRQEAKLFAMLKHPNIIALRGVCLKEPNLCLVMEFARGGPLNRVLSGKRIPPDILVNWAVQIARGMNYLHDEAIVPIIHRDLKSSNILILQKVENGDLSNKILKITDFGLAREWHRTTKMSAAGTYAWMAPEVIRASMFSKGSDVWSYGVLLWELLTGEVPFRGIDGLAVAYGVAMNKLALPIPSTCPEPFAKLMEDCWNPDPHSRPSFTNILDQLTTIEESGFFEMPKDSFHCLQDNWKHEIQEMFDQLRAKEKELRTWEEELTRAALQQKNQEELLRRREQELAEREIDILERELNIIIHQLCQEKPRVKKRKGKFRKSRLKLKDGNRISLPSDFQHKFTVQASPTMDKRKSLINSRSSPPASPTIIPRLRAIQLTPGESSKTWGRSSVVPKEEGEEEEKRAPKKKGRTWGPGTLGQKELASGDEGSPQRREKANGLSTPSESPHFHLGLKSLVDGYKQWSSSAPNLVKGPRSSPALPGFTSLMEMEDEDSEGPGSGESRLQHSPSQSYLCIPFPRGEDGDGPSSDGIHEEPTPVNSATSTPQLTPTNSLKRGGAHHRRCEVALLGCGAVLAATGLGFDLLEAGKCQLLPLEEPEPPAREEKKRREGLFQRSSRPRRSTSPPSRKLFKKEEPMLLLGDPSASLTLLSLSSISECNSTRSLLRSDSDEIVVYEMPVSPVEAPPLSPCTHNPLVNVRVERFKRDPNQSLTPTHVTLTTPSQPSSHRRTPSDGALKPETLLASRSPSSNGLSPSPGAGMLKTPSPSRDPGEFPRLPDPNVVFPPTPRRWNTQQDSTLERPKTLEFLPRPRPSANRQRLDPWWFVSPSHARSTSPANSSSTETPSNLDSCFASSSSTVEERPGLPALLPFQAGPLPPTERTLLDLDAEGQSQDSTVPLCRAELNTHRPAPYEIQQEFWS"}, "CHEK2 (human)": {"molecular_target": "CHEK2 (human) (UniProt O96017)"}, "PLK3 (human)": {"molecular_target": "PLK3 (human) (UniProt Q9H4B4)", "sequence (Q9H4B4 whole entry, looked up)": "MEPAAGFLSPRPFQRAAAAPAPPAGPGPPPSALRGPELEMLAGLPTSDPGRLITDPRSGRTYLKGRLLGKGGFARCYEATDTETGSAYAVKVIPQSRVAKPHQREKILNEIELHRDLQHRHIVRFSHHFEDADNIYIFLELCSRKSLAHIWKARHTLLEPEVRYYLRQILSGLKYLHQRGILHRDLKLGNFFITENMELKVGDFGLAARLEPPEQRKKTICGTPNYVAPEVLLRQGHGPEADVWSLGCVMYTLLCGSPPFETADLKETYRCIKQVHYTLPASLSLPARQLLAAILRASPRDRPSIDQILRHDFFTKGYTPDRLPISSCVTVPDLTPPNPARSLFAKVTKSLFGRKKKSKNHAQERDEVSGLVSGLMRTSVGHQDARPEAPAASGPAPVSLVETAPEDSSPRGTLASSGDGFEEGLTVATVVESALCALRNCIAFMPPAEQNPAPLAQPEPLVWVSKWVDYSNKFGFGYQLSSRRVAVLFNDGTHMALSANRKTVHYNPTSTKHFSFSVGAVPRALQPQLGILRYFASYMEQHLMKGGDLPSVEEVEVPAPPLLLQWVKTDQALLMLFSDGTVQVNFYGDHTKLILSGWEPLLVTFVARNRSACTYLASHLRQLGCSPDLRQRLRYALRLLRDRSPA"}, "NEK1 (human)": {"molecular_target": "NEK1 (human) (UniProt Q96PY6)"}, "FGFR3 (human)": {"molecular_target": "FGFR3 (human) (UniProt P22607)"}, "PRKCD (human)": {"molecular_target": "PRKCD (human) (UniProt Q05655)"}, "STK17B (human)": {"molecular_target": "STK17B (human) (UniProt O94768)"}, "LRRK2 (human)": {"molecular_target": "LRRK2 (human) (UniProt Q5S007)"}, "TXK (human)": {"molecular_target": "TXK (human) (UniProt P42681)", "sequence (P42681 whole entry, looked up)": "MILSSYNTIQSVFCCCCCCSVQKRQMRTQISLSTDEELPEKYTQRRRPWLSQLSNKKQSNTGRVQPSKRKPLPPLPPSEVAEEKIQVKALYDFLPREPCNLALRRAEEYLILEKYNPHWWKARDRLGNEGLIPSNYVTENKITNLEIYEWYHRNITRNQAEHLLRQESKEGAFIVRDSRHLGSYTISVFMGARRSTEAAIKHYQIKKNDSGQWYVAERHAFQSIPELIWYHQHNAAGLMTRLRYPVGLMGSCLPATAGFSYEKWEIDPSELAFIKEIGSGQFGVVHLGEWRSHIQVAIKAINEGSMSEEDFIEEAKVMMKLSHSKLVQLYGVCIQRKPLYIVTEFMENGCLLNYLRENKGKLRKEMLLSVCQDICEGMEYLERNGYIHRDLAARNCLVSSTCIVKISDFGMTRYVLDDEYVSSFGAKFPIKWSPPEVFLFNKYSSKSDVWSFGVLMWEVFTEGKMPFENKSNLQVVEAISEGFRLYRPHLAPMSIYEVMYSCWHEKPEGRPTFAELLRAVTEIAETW"}, "RIOK3 (human)": {"molecular_target": "RIOK3 (human) (UniProt O14730)"}, "MAP4K2 (human)": {"molecular_target": "MAP4K2 (human) (UniProt Q12851)"}, "MARK2 (human)": {"molecular_target": "MARK2 (human) (UniProt Q7KZI7)"}, "PAK4 (human)": {"molecular_target": "PAK4 (human) (UniProt O96013)"}, "MAP2K1 (human)": {"molecular_target": "MAP2K1 (human) (UniProt Q02750)"}, "TLK1 (human)": {"molecular_target": "TLK1 (human) (UniProt Q9UKI8)"}, "[4]": {"test_system": "KIT (human), P10721 [L576P]"}, "BLK (human)": {"molecular_target": "BLK (human) (UniProt P51451)"}, "FYN (human)": {"molecular_target": "FYN (human) (UniProt P06241)"}}, "data": [{"smiles": "COCCNCCCn1c(C(=O)CF)c(-c2ccc(C)cc2)c2c(N)ncnc21", "values": [{"measurement": "kinase still bound, per cent of control", "setting": "STK16 (human)", "value": 100, "unit": "%"}, {"measurement": "kinase still bound, per cent of control", "setting": "CSNK1A1L (human)", "value": 100, "unit": "%"}, {"measurement": "kinase still bound, per cent of control", "setting": "ERN1 (human)", "value": 99, "unit": "%"}, {"measurement": "kinase still bound, per cent of control", "setting": "[1]", "value": 91, "unit": "%"}, {"measurement": "kinase still bound, per cent of control", "setting": "MAP3K7 (human)", "value": 100, "unit": "%"}, {"measurement": "kinase still bound, per cent of control", "setting": "VRK2 (human)", "value": 100, "unit": "%"}, {"measurement": "kinase still bound, per cent of control", "setting": "BMPR2 (human)", "value": 72, "unit": "%"}, {"measurement": "kinase still bound, per cent of control", "setting": "CAMK4 (human)", "value": 100, "unit": "%"}, {"measurement": "kinase still bound, per cent of control", "setting": "TYRO3 (human)", "value": 100, "unit": "%"}, {"measurement": "kinase still bound, per cent of control", "setting": "PAK6 (human)", "value": 93, "unit": "%"}, {"measurement": "kinase still bound, per cent of control", "setting": "MAPK7 (human)", "value": 100, "unit": "%"}, {"measurement": "kinase still bound, per cent of control", "setting": "HCK (human)", "value": 100, "unit": "%"}, {"measurement": "kinase still bound, per cent of control", "setting": "KDR (human)", "value": 85, "unit": "%"}, {"measurement": "kinase still bound, per cent of control", "setting": "EPHB1 (human)", "value": 94, "unit": "%"}, {"measurement": "kinase still bound, per cent of control", "setting": "GSK3B (human)", "value": 100, "unit": "%"}, {"measurement": "kinase still bound, per cent of control", "setting": "PAK1 (human)", "value": 89, "unit": "%"}, {"measurement": "kinase still bound, per cent of control", "setting": "CPK1 (P.falciparum)", "value": 89, "unit": "%"}, {"measurement": "kinase still bound, per cent of control", "setting": "GSK3A (human)", "value": 100, "unit": "%"}, {"measurement": "kinase still bound, per cent of control", "setting": "[2]", "value": 97, "unit": "%"}, {"measurement": "kinase still bound, per cent of control", "setting": "PAK3 (human)", "value": 100, "unit": "%"}, {"measurement": "kinase still bound, per cent of control", "setting": "[3]", "value": 81, "unit": "%"}, {"measurement": "kinase still bound, per cent of control", "setting": "ALK (human)", "value": 71, "unit": "%"}, {"measurement": "kinase still bound, per cent of control", "setting": "MTOR (human)", "value": 90, "unit": "%"}, {"measurement": "kinase still bound, per cent of control", "setting": "RPS6KA2 KD2 (human)", "value": 95, "unit": "%"}, {"measurement": "kinase still bound, per cent of control", "setting": "STK25 (human)", "value": 100, "unit": "%"}, {"measurement": "kinase still bound, per cent of control", "setting": "MINK1 (human)", "value": 100, "unit": "%"}, {"measurement": "kinase still bound, per cent of control", "setting": "MAP3K9 (human)", "value": 100, "unit": "%"}, {"measurement": "kinase still bound, per cent of control", "setting": "CHEK2 (human)", "value": 100, "unit": "%"}, {"measurement": "kinase still bound, per cent of control", "setting": "PLK3 (human)", "value": 91, "unit": "%"}, {"measurement": "kinase still bound, per cent of control", "setting": "NEK1 (human)", "value": 100, "unit": "%"}, {"measurement": "kinase still bound, per cent of control", "setting": "FGFR3 (human)", "value": 92, "unit": "%"}, {"measurement": "kinase still bound, per cent of control", "setting": "PRKCD (human)", "value": 90, "unit": "%"}, {"measurement": "kinase still bound, per cent of control", "setting": "STK17B (human)", "value": 96, "unit": "%"}, {"measurement": "kinase still bound, per cent of control", "setting": "LRRK2 (human)", "value": 100, "unit": "%"}, {"measurement": "kinase still bound, per cent of control", "setting": "TXK (human)", "value": 100, "unit": "%"}, {"measurement": "kinase still bound, per cent of control", "setting": "RIOK3 (human)", "value": 68, "unit": "%"}, {"measurement": "kinase still bound, per cent of control", "setting": "MAP4K2 (human)", "value": 94, "unit": "%"}, {"measurement": "kinase still bound, per cent of control", "setting": "MARK2 (human)", "value": 81, "unit": "%"}, {"measurement": "kinase still bound, per cent of control", "setting": "PAK4 (human)", "value": 92, "unit": "%"}, {"measurement": "kinase still bound, per cent of control", "setting": "MAP2K1 (human)", "value": 100, "unit": "%"}, {"measurement": "kinase still bound, per cent of control", "setting": "TLK1 (human)", "value": 78, "unit": "%"}, {"measurement": "kinase still bound, per cent of control", "setting": "[4]", "value": 71, "unit": "%"}, {"measurement": "kinase still bound, per cent of control", "setting": "BLK (human)", "value": 100, "unit": "%"}, {"measurement": "kinase still bound, per cent of control", "setting": "FYN (human)", "value": 87, "unit": "%"}]}]}
